Data published in patent publication US10577404B2, “Polypeptide derivatives from grass carp interferon and application thereof” (priority 2018, dated 2020).
Where two headings read alike, the source gives them in different places. Ends that are not written are not given here.

Assays:
[1] = test system: red blood cells of grass carp; assay: Hemolytic toxicity test on erythrocytes; format: cell-based; conditions: concentration 64 μM or above
Description: (§1) (1) 1 ml of blood of fresh grass carp and BALB/c mice are collected respectively and stored with heparin sodium for anticoagulation.
(§2) (2) The fresh plasma solutions obtained in step (1) are centrifuged under 1000 g for 5 minutes, the supernatant is discarded, and red blood cells are collected.
(§3) (3) The collected red blood cells are washed 3 times with PBS buffer, centrifuged under 1000 g for 5 minutes each time, and finally resuspended in 5 ml of PBS buffer.
(§4) 50 μl PBS+50 μl red blood cell suspension is used as a negative control, and 50 μl of red blood cell suspension+50 μl of 0.2% Triton X-100 is used as a positive control.
(§5) (6) After 1 hour, the 96-well plate is taken out, and centrifuged under 1000 g for 5 minutes at 4° C.
(§6) (7) The supernatant of the above-mentioned centrifuged solutions is taken and placed on a clean 96-well plate again, and then absorbance is measured at 570 nm with a microplate reader.
(§7) (8) The average values of all the groups are compared and analyzed. The test is repeated three times. Calculation formula: Hemolysis rate=(absorbance of experimental group−absorbance of negative group)/(absorbance of positive group−absorbance of negative group)×100%. (9)

grass carp CIK cells = assay: Cytotoxicity test (MTT method); format: cell-based; conditions: final concentration 128 μM, 24 hours
Description: (§8) Cytotoxicity test of the interferon-derived polypeptide on human HEK293T cells and grass carp CIK cells:
(§9) The MTT method, also known as the MTT colorimetric method, is a method for measuring cell proliferation and cell survival rate. The detection principle is that the […] in the living cell mitochondria can reduce the exogenous MTT to a water-insoluble blue-purple crystalline Formazan which deposits in the cells, while the dead cells have no such function. DMSO can dissolve Formazan in the cells, and through measuring its absorbance by using an enzyme-linked immunosorbent detector at a wavelength of 492 nm, the number of living cells can be reflected indirectly. Within a certain range of the number of cells, the amount of the formed MTT crystal is proportional to the number of cells.
(§10) (1) Cell preparation: A human HEK293T cell line and grass carp CIK cell line preserved in liquid nitrogen are resuscitated and cultured in DMEM containing 10% fetal bovine serum under the conditions of 37° C./28° C., 5% CO2, and saturated humidity. The culture solution is changed every other day, and the cell passage is carried out by trypsinization. When 80%-90% of the bottom of the flask is covered with cells, the cells are washed twice with PBS, 2 ml of 0.25% trypsin digestive juice is added, and the degree of digestion is observed under an inverted microscope; when most of the cells are rounded and the cells are in loose connection, it indicates moderate digestion and this process is about 3 minutes; the digestion is terminated by adding a DMEM or MEM medium containing fetal bovine serum, the digestive juice is poured off, and about 3 ml of the cell culture solution is added to thoroughly blow the cells to form a single cell suspension. Finally, the diluted cell suspension is added to a 96-well plate, and 50 μl of the diluted cell suspension is added to each well at a concentration of about 1×10^4 cells/well.
(§11) The cell wells without the interferon-derived polypeptide are used as positive control, and the cell well with the interferon-derived polypeptide but without the cells are used as negative control, and the culture is further continued for 24 hours.
(§12) (3) Reading: After culture for a certain period of time, […] (5 mg/ml) of MTT is directly added to each well, and after culture for 4 hours, 150 μl of DMSO is added and vibration is carried out for 10 minutes to dissolve the crystal, and the absorbance is then measured at 492 nm by the enzyme-linked immunosorbent detector. The test is repeated three times.
(§13) Survival rate=(absorbance of experimental group−absorbance of negative group)/(absorbance of positive group−absorbance of negative group)×100%. (5)

red blood cells of mice = assay: Hemolytic toxicity test on erythrocytes; format: cell-based, BALB/c mice; conditions: concentration 64 μM or above
Description: as §1, §2, §3, §4, §5, §6, §7

[2] = Cytotoxicity test (MTT method); format: cell-based
Description: as §8, §9, §10, §11, §12, §13

human HEK293T cells = assay: Cytotoxicity test (MTT method); format: cell-based; conditions: 24 h, 128 µM
Description: as §8, §9, §10, §11, §12, §13

[3] = Toxicity of the drug to mice without bacterial infection (safe dose); format: in vivo; conditions: intraperitoneal injection, no bacterial infection
Description: First, an appropriate drug treatment dose is selected through pre-tests, and an appropriate drug dose concentration is found through 3-5 different drug dose concentration groups. In addition, the toxicity of the drug to mice should be tested so as to preliminarily evaluate the safety of the drug, that is, in the absence of bacterial infection, only the mice are intraperitoneally injected with the interferon-derived polypeptide drug, and the safe dose range is <200 μg/head.

[4] = human, HEK293T cells, Survival rate of cells

Row | Molecule | hemolytic toxicity (in words) [1] | Survival rate of cells (grass carp CIK cells) [%] | hemolytic toxicity (in words) (red blood cells of mice) | viability at 24 h, 8 µM ([2]; CIK cells, grass carp CIK, final concentration 8 μM, read-out: Survival rate of cells) [%] | viability at 24 h, 16 µM ([2]; CIK cells, grass carp CIK, final concentration 16 μM, read-out: Survival rate of cells) [%] | viability at 24 h, 32 µM ([2]; CIK cells, grass carp CIK, final concentration 32 μM, read-out: Survival rate of cells) [%] | viability at 24 h, 64 µM ([2]; CIK cells, grass carp CIK, final concentration 64 μM, read-out: Survival rate of cells) [%] | viability at 24 h, 128 µM ([2]; CIK cells, grass carp CIK, final concentration 128 μM, read-out: Survival rate of cells) [%] | viability at 24 h, 8 µM [2, 4] [%] | viability at 24 h, 16 µM [2, 4] [%] | viability at 24 h, 32 µM [2, 4] [%] | viability at 24 h, 64 µM [2, 4] [%] | viability at 24 h, 128 µM [2, 4] [%] | Survival rate of cells (human HEK293T cells) [%] | safe dose range [3] [μg/head]
1 | CC[C@H](C)[C@H](NC(=O)[C@H](CCCCN)NC(=O)[C@H](CCC(=O)O)NC(=O)[C@H](CCCCN)NC(=O)[C@H](CO)NC(=O)[C@H](CCCCN)NC(=O)[C@H](CCCNC(=N)N)NC(=O)[C@H](Cc1ccccc1)NC(=O)[C@H](Cc1ccccc1)NC(=O)[C@H](CC(=O)O)NC(=O)CNC(=O)[C@H](CC(C)C)NC(=O)[C@@H](N)CC(C)C)C(=O)NCC(=O)N[C@@H](CCCCN)C(=O)N[C@@H](CCC(=O)O)C(=O)N[C@@H](Cc1ccccc1)C(=O)N[C@@H](CCCCN)C(=O)N[C@@H](CCCNC(=N)N)C(=O)N[C@H](C(=O)N[C@H](C(=O)N[C@@H](CCC(N)=O)C(=O)N[C@@H](CCCNC(=N)N)C(=O)N[C@H](C(=O)N[C@@H](CCCCN)C(=O)N[C@@H](CC(=O)O)C(=O)N[C@@H](Cc1ccccc1)C(=O)N[C@@H](CC(C)C)C(=O)N[C@@H](CCCNC(=N)N)C(=O)N[C@@H](CC(N)=O)C(=O)N[C@@H](CC(C)C)C(=O)N[C@H](C(=O)N1CCC[C@H]1C(=O)N[C@@H](CCCNC(=N)N)C(=O)N[C@H](C(=O)N[C@@H](CCC(=O)O)C(=O)N[C@@H](CO)C(=O)O)[C@@H](C)O)C(C)C)[C@@H](C)CC)C(C)C)[C@@H](C)CC [LL37] | obvious | 15 | obvious |  |  |  |  |  |  |  |  |  |  |  | 
2 | SYEKKINRHFKILKKNLKKK [Interferon-derived polypeptide] |  | 81 |  | 95.4 | 96.7 | 95.2 | 87 | > 80 | 98.3 | 97.2 | 93 | 89 | > 80 | 83 | < 200
